Where no end group is shown, it is not given here.
Tested on: Male Wistar rats
Assay: Montoya staircase test
Assay type: in vivo, rat
Experimental: Male Wistar rats (250 to 300 grams; Charles River, Montreal, Quebec) were divided into 4 groups: intracerebroventricular injections of Aβ(25-35) (BACHEM, Torrance, Calif.); endothelin injections into the right striatum; both Aβ(25-35) and striatal endothelin injections; and sham procedures. The Aβ(25-35) fragment was used to reduce the possibility of rapid coagulation and to allow diffusion of the peptide into the brain.
All rats were anesthetized using 40 mg/kg of pentobarbital (Somnotol; MTC Pharmaceuticals, Cambridge, Ontario) intraperitoneally. Body temperature was maintained at 37° C. Aβ(25-35) (50 nmol in 10 μL of saline) was injected bilaterally into the lateral ventricles. Aβ(25-35) was prepared according to established methods (Sigurdsson, et al. (1997) supra). Aβ(25-35) (50 nmol in 10 μL of saline at a rate of 1 μL/minute) was injected bilaterally into the lateral ventricles via a stainless-steel cannula (23-gauge; anterior/posterior −0.8, medial/lateral ±1.4, and dorsal/ventral −4.0 below dura). Two endothelin injections (6 pmol in 3 μL of saline), 1 mm apart, were made into the right striatum (Sigurdsson, et al. (1997) supra). Sham procedures involved all the surgical steps without injections of Aβ(25-35) or endothelin. After wound suture, all rats received […] of buprenorphine intramuscularly and were allowed to recover from surgery for 7 days.
For training (n=10 for each group), rats were placed into the Montoya staircase apparatus (Montoya, et al. (1991) supra) at the same time every day for 8 days (days −8 through −1) and were allowed to perform the test for 20 minutes. Rats were food-deprived for 1 day (day −9) before testing, as well as on day −8. On days −7 though −1, rats were fed 10 grams of their normal chow so that they maintained their body weight at ˜85%. Three NOYES LAB ANIMAL PRECISION FOOD PELLETS™ (Research Diets, Inc., New Brunswick, N.J.) were placed in each of the 14 wells (7 on each side). Pellets eaten were recorded from each well. Re-testing trials, which were performed 7 days after the surgical procedures (day 0), were performed for 8 days in the same way as the training trials (days 8 through 15).
Digital photographs were taken using a light microscope (Leitz Diaplan). An investigator was blinded to the identification of the rat sections while analysis was being performed. […] Also, relative optical density measurements and numbers of stained cells or accumulations were measured in entire brain areas for quantitative analysis and statistically analyzed with ANOVA and Tukey post hoc test with a significance level of P<0.05. […] The staircase data are expressed as the mean±SEM. […] Data are expressed as mean±SEM. […]

For “GSNKGAIIGLM [Aβ, β-amyloid fragment (25-35), 50 nmol injected bilaterally into the lateral ventricles of rats]”, the “Staircase test performance, ipsilateral paw” value (day 8 (first day of re-testing), mean±SEM) was 73±8 % of pretreatment and the “total number of pellets eaten” value (day 8 compared with the last day of training, disappeared by day 9) was “significant deficit”.
